Measured values taken from patent EP2072514A1, “1(2)H-tetrazol-5-yl-phenyl-oxazolidinones as antibacterial agents” (Ferrer Internacional, S.A., priority 2007, dated 2009).
≈ marks a conversion by molar mass, not a printed value.

How the values were obtained:
S. Aureus MR = experiment: MIC by standard micro dilution method (NCCLS M7-A5); format: cell-based, Staphylococcus aureus; conditions: Mueller-Hinton medium (cation-adjusted), 16-24 h at 35°C; for MIC: Staphylococcus aureus, read-out: Geometric Mean MIC
S. epidermidis = experiment: as above; format: cell-based, Staphylococcus epidermidis; conditions: Mueller-Hinton medium (cation-adjusted), 16-24 h at 35°C; for MIC: Staphylococcus epidermidis, read-out: Geometric Mean MIC
S. pneumoniae = experiment: as above; format: cell-based, Streptococcus pneumoniae; conditions: 20-24h at 35°C; for MIC: Streptococcus pneumoniae, 5% CO2, read-out: Geometric Mean MIC
human MAO-A = target: T1, human MAO-A (Homo sapiens, UniProt P21397); experiment: In vitro MAO-A enzymatic activity (kynuramine substrate, fluorometry); format: biochemical; conditions: membranes from SF9 cells expressing human MAO-A; kynuramine 30 µM, 37° for 40 min
T1 construct: purchased Gentest, BD, USA; host or cells: SF9 cells (membranes)
T1 sequence (P21397 1-527): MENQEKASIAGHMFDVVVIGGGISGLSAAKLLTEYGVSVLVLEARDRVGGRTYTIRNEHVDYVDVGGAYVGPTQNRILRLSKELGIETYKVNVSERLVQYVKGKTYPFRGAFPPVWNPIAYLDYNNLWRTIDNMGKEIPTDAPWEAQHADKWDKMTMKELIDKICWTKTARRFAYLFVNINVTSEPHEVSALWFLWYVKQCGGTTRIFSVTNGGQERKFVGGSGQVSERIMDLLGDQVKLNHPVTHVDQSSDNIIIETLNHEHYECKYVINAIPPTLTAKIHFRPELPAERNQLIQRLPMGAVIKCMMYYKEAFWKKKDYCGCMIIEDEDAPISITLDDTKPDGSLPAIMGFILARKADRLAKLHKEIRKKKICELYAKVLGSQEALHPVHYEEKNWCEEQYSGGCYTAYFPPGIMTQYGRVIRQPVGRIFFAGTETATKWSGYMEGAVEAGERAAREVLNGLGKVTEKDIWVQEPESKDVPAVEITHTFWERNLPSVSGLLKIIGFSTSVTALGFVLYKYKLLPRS
Method: (§1) MAO-A and MAO-B enzymatic activities were measured using membranes obtained from SF9 cells expressing either human MAO-A or human MAO-B (Gentest, BD, USA). Assays were done in blank 96-well micro titter plates using kynuramine as substrate and measuring the formation of 4-hydroxyquinoline by fluorescence at 340 nm/465 nm. Briefly, membranes with MAO-A (0.006 mg/mL protein) and MAO-B (0.015 mg/mL protein) were incubated with kynuramine, 30 µM), at 37° for 40 min in the presence of the compound in a final volume of 200 µL. Reactions were stopped by adding NaOH 2N and the reaction product, 4-hydroxyquinoline, was determined by fluorometry using a Tecan Ultra reader.

human MAO-B = target: T2, human MAO-B (Homo sapiens, UniProt P27338); experiment: In vitro MAO-B enzymatic activity (kynuramine substrate, fluorometry); format: biochemical; conditions: membranes from SF9 cells expressing human MAO-B; kynuramine 30 µM, 37° for 40 min
T2 construct: purchased Gentest, BD, USA; host or cells: SF9 cells (membranes)
T2 sequence (P27338 1-520): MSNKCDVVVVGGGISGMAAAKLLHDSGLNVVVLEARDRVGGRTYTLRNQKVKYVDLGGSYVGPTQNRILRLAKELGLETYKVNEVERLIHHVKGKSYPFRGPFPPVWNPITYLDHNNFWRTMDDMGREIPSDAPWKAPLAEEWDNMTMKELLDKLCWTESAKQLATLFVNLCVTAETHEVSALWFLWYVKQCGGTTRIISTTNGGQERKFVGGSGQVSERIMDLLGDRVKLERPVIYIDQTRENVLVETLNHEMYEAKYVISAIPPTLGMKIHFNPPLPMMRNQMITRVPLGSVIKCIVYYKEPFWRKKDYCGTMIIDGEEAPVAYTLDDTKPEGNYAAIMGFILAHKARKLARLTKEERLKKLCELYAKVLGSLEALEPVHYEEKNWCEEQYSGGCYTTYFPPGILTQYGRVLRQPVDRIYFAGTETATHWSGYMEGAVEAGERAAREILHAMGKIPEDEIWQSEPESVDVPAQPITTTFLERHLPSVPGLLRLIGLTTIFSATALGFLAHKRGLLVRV
Method: as §1

[1] = tested on: Moxarella, Pasteurella and Bacteroides spp.; conditions: background art; cited from earlier work

Compound | MIC (S. Aureus MR) [µg/mL] | MIC (S. epidermidis) [µg/mL] | MIC (S. pneumoniae) [µg/mL] | Ki (human MAO-A) [µM] | Ki (human MAO-B) [µM] | MICs [1] [µg/mL] | Geometric Mean MIC (S. Aureus MR) [µg/mL] | Geometric Mean MIC (S. epidermidis) [µg/mL] | Geometric Mean MIC (S. pneumoniae; 5% CO2) [µg/mL]
CC(=O)NC[C@H]1CN(c2ccc(-c3nnnn3C)c(F)c2)C(=O)O1 [Example 2, N-[[(5S)-3-[3-fluoro-4-(1-methyl-1H-tetrazol-5-yl)-phenyl]-2-oxo-5-oxazolidinyl]methyl]acetamide] | 2 (≈ 5.98 µM) | 2 (≈ 5.98 µM) | 2 (≈ 5.98 µM) | 74.2 | 14.2 |  |  |  | 
CC(=O)NC[C@H]1CN(c2ccc(-c3nnn(CCO)n3)c(F)c2)C(=O)O1 [Example 7, N-[[(5S)-3-[3-fluoro-4-(2-hydroxyethyl-2H-tetrazol-5-yl)-phenyl]-2-oxo-5-oxazolidinyl]methyl]acetamide] |  |  |  | 28.8 | 8.1 |  |  |  | 
CC(=O)NC[C@H]1CN(c2ccc(N3CCOCC3)c(F)c2)C(=O)O1 [Linezolid, N-[[(5S)-3-[3-fluoro-4-(4-morpholinyl)phenyl]-2-oxo-5-oxazolidinyl]methyl]acetamide, reference compound] | 1 (≈ 2.96 µM) | 1 (≈ 2.96 µM) | 1 (≈ 2.96 µM) |  |  | 2 to 8 |  |  | 
N-[[(5S)-3-[3-fluoro-4-(1-hydroxyethyl-1H-tetrazol-5-yl)-phenyl]-2-oxo-5-oxazolidinyl]methyl]acetamide [Example 8] |  |  |  |  |  |  | 2 | 1 | 2
N-[[(5S)-3-[3-fluoro-4-(2-acetoacetyl-2H-tetrazol-5-yl)-phenyl]-2-oxo-5-oxazolidinyl]methyl]acetamide [Example 6] |  |  |  | 37.1 | 10.1 |  |  |  | 
